Here are results for three compounds from US4447434A, “Substituted dibenzodiazepinones” (Dr. Karl Thomae GmbH, priority 1982, dated 1984).

Data set [1] deals with muscarinic receptors (smooth muscle fundus of stomach). The data set is described as follows: Binding to muscarinic receptors, smooth muscle of the fundus of the stomach (displacement of 3H-N-methylscopolamine). Set-up: species or system rat (male Sprague-Dawley). The settings on record: smooth muscle of fundus homogenate 1:100; 0.3 n molar 3H-NMS; 30° C, 45 min, pH 7.4; read-out: Receptor binding tests IC50, Smooth muscle fundus of stomach. The procedure:
(§1) 2. Studies of binding to muscarinic receptors: Determination of the IC50 value
(§2) The organ donors were male Sprague-Dawley rats with a body weight of from 180 to 220 g. After the heart, stomach and cerebral cortex had been removed, the remainder of the operation was carried out in ice-cold Hepes-HCl buffer (pH 7.4; 100 m molar NaCl, 10 m molar MgCl2). The smooth muscle of the fundus of the stomach was separated from the mucous membrane of the stomach and subjected to preliminary homogenization. The whole heart was cut up with scissors. All the organs were then homogenized in a Potter apparatus.
(§3) For the binding test, the homogenized organs were diluted as follows:
Smooth muscle of the fundus of the stomach: 1:100
(§4) The homogenized organ preparations were incubated at a specific concentration of the radiolabelled compound and with a series of concentrations of the nonradioactive test substances in an Eppendorf centrifuge tube at 30° C. The duration of incubation was 45 minutes. 0.3 n molar ^3 H-N-methylscopolamine (^3 H-NMS) was used as the radiolabelled compound. After incubation had been brought to an end by centrifuging at 14000 g, the radioactivity in the pellet was determined. It represents the sum of the specific and nonspecific binding of ^3 H-NMS. The proportion of nonspecific binding was defined as the radioactivity which was bound in the presence of 1μ molar quinuclidinylbenzylate. Four measurements were taken in each case. The IC50 values of the non-labelled test substances were determined graphically. They represent the concentration of test substance at which the specific binding of ^3 H-NMS to the muscarinic receptors in the various organs was inhibited by 50%.
For orientation: Displacement assays read how much labelled ligand stays bound in the presence of the test substance.

The target of data set [2] is muscarinic receptors (cerebral cortex). The data set is described as follows: Binding to muscarinic receptors, cerebral cortex (displacement of 3H-N-methylscopolamine). Set-up: species or system rat (male Sprague-Dawley). Particulars: cerebral cortex homogenate 1:3000; 0.3 n molar 3H-NMS; 30° C, 45 min, pH 7.4; read-out: Receptor binding tests IC50, Cortex. How it is done: as §1, §2, §3, §4

Data set [3] concerns oxotremorine-induced secretion of saliva. Kind of data set: Oxotremorine test: inhibition of salivation. In kind it is in vivo, rat (female albino, Crl:COBS-CD (SD) BR). Particulars: Rattus norvegicus, iv, 0.25 h, read-out: Oxotremorine Test, Inhibition of salivation ED50. The procedure: (§5) Oxotremorine, a specific agonist for muscarinic receptors, produces lesions in the mucous membrane of the stomach in rats and increases their secretion of saliva. This test method was chosen so that any selective activity of an antimuscarinic substance on the stomach could be identified.
(§6) 10 female albino rats (of the Crl:COBS-CD (SD) BR strain) with a body weight of from 120 to 150 g were used in each treatment group and were kept without food for 24 hours before the start of the test but given free access to drinking water.
(§7) In order to determine, in preliminary tests, the muscarinic effect of oxotremorine on each of the symptoms studied, a dosage/activity curve was drawn up with at least three dosages for each symptom.
(§8) When testing the antimuscarinic substances, the dosage of oxotremorine which triggered the symptom in question in 90 to 100% of the animals in the preliminary tests was used.
Secretion of saliva: 0.083 mg/kg i.v.
(§9) Each antimuscarinic substance was administered intravenously in uniformly graduated doses 15 minutes before the oxotremorine was administered. Control groups were given corresponding quantities of the solvent and suspending agent instead of the test substance.
(§10) Immediately after the oxotremorine was administered, the animals were placed in a glass case for 15 minutes and observed.
(§11) The ED50 values were determined using the method described by LITCHFIELD and WILCOXON (J. Pharmacol. Exp. Ther. 96, 99, 1949).

For data set [4], the target named is T1, muscarinic receptors (heart) (Rattus norvegicus, UniProt P10980).
T1 construct: The whole heart was cut up with scissors; from tissue; host or cells: whole heart of male Sprague-Dawley rats, homogenate
T1 sequence (P10980 1-466): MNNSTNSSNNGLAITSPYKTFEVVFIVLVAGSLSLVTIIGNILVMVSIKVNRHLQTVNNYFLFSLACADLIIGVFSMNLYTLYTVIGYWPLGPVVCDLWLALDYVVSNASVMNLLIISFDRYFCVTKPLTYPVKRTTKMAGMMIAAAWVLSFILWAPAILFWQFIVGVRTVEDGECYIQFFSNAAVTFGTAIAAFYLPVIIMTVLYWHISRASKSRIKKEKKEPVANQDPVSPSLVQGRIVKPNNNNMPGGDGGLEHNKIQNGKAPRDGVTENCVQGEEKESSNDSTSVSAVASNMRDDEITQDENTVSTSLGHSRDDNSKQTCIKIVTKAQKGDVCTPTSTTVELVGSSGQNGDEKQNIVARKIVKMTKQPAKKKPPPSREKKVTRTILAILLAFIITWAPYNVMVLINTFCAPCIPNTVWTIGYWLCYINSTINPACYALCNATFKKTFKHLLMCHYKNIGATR
The data set is described as follows: Binding to muscarinic receptors, whole heart (displacement of 3H-N-methylscopolamine). Set-up: species or system rat (male Sprague-Dawley). The procedure: as §1, §2, §3, §4

In data set [5] the test system is oxotremorine-induced lesions in the mucous membrane of the stomach. Kind of data set: Oxotremorine test: antiulcerative effect (protection against lesions of the mucous membrane of the stomach). It is filed as in vivo, rat (female albino, Crl:COBS-CD (SD) BR). The settings on record: Rattus norvegicus, iv; for ED50: read-out: Oxotremorine Test, Antiulcerative effect ED50; for ED70: read-out: Oxotremorine Test, Antiulcerative effect ED70. How it is done:
as §5, §6, §7, §8
Lesions in mucous membrane of stomach: 0.62 mg/kg i.v.
as §9, §10, §11
The effects on lesions of the mucous membrane of the stomach were evaluated as follows:
The lesions of the gastric mucous membrane were produced by intravenous injection of 0.62 mg/kg of oxotremorine 30 minutes after the oral administration of 1 mg/kg of neostigmine (a cholinesterase inhibitor). 60 minutes after the administration of the neostigmine, the animals were killed, the stomachs were removed and opened and examined for the presence of any lesions in the mucous membrane. The protective effect of the test substances was expressed as the percentage inhibition (percentage of animals without lesions). The ED50 and ED70 values were determined using the method of LITCHFIELD and WILCOXON (see above).

Data set [6] is described as follows: Mydriasis (effect on the pupil size). Particulars: rat, in vivo, iv; pupil size observed for 10 minutes; double blind. How it is done:
The effect of the test substances on the pupil size in rats was investigated as follows:
The substances were administered intravenously to groups of 10 animals in at least three uniformly graduated doses. […] The percentage of test animals in which mydriasis occurred was determined. The ED50 values were again determined using the method of LITCHFIELD and WILCOXON (see above).

Setting [7] is: i.v., 15 min before oxotremorine 0.083 mg/kg i.v., double blind.
The mark [8] stands for this setting: 15 min before oxotremorine 0.62 mg/kg i.v., neostigmine 1 mg/kg oral.

Where two headings read alike, the source gives them in different places.

In general, IC50 refers to the point on the concentration scale where inhibition reaches its midpoint. In general, ED50 refers to the dose that gives a 50% effect, or the effect in half of the subjects. In the case of `CN1CCC(CC(=O)N2c3ccccc3C(=O)Nc3cccc(Cl)c32)CC1` [Substance B, 6-chloro-5,10-dihydro-5-[(1-methyl-4-piperidinyl)acetyl]-11H-dibenzo[b,e][1,4]diazepin-11-one], the half-inhibitory concentration (IC50) in data set [1] stood at 170 nM; in data set [2], 28 nM; in data set [4], 200 nM. The ED50 in data set [3] (setting [7]) is 0.23 mg/kg; in data set [5] (setting [8]) it was 0.0044 mg/kg. Moreover, in data set [5] (setting [8]), the ED70 turned out to be 0.0084 mg/kg. The compound further registered an ED50 at 10 min in data set [6] of 0.138 mg/kg.

With `CN1[C@@H]2CC[C@H]1C[C@@H](CC(=O)N1c3ccccc3NC(=O)c3ccccc31)C2` [Substance C, endo-5,10-dihydro-5-[(8-methyl-8-azabicyclo[3,2,1]-oct-3-yl)acetyl]-11H-dibenzo[b,e][1,4]diazepin-11-one], the IC50 amounted to 200 nM in data set [1]; 15 nM in data set [2]; 55 nM in data set [4] (whole heart homogenate 1:250, 0.3 n molar 3H-NMS, 30° C, 45 min, pH 7.4, read-out: Receptor binding tests IC50, Heart). Moreover, the ED50 was 0.105 mg/kg in data set [3] and 0.0011 mg/kg in data set [5]. Also, the ED70 in data set [5] came to 0.0038 mg/kg. In addition, the 50% effect level in data set [6] (ED50 at 10 min) was put at a dose of 0.054 mg/kg.

On to `CN1CC=C(C(=O)N2c3ccccc3NC(=O)c3ccccc32)CC1` [Substance A, 5,10-dihydro-5-[(1-methyl-1,2,5,6-tetrahydro-4-pyridinyl)-carbonyl]-11H-dibenzo[b,e][1,4]diazepin-11-one], for which the figures for the half-maximal inhibitory concentration (IC50) in data set [1], in data set [2] and in data set [4] were 100 nM, 30 nM and 250 nM, respectively. The ED50 is 0.08 mg/kg in data set [3] (setting [7]) and 0.0031 mg/kg in data set [5] (setting [8]). In data set [5] (setting [8]), the ED70 was determined as 0.0065 mg/kg. This compound returned an ED50 at 10 min in data set [6] of 0.0366 mg/kg.
